{
  "source": "patent US5302610A",
  "about": "“Renal-selective biphenylmethyl imidazole angiotensin II antagonists for treatment of hypertension” (G. D. Searle & Co., priority 1991, dated 1994)",
  "key": {"[1]": {"system": "AII receptor", "experiment": "Assay C: In Vivo Intravenous Pressor Assay Response for AII Antagonists", "parameters": "species or system male Sprague-Dawley rats, ganglion-blocked", "experimental": "The in vivo AII receptor antagonist activity of Example #5 compound was examined in ganglion-blocked male Sprague-Dawley rats (Harlan Sprague-Dawley, Inc.), weighing 300-400 g, anesthetized with 100 mg/kg i.p. Inactin. Catheters (PE-50) were implanted in a femoral artery and vein to measure mean arterial pressure and to administer compounds, respectively. A tracheal catheter maintained airway patency. For intravenous experiments, autonomic neurotransmission was blocked by treatment with mecamylamine (3 mg/kg i.v.) and atropine (400 μg/kg i.v.). AII (30 ng/kg i.v., 20-25 μl volume) was administered four times at 10 minute intervals to establish a reproducible control pressor response. Example #5 compound was then administered at 1, 3 and 10 mg/kg in separate groups of rats as an intravenous bolus (0.2 ml volume) before rechallenging with AII (30 ng/kg, 20-25 μl volume) for the following 2 hours. For intraduodenal experiments, rats were anesthetized as above, but ganglion blockade was not performed. AII was administered at 100 ng/kg i.v. (20-25 μl volume), and was administered at 10, 30 and 100 mg/kg in separate groups of rats as an intraduodenal bolus (0.2 ml volume). Angiotensin II injections were then given 5, 10, 20, 30, 45, 60, 75, 90, and 120 minutes after administration of the test compound and response of arterial pressure was monitored. The response to AII was calculated as percent of the control response and then the percent inhibition was calculated as 100 minus the percent control response. Duration of action of a test compound was defined as the time from peak percent inhibition to 50% of peak. The test compound was tested in two rats and the values for the two rats were averaged."}, "[2]": {"system": "response to angiotensin II (urinary sodium excretion)", "experiment": "Assay E: Urinary Sodium Excretion, acute administration with AII infusion", "format": "in vivo, male Sprague-Dawley rats, conscious", "conditions": "for Urinary Sodium Excretion: means±SE", "experimental": "antagonist compound (Ex. #5) and a glutamyl conjugate (Ex. #81) of the Ex. #5 AII antagonist compound to determine the renal selectivity of the conjugate. Male Sprague-Dawley rats (300-350 g body weight) had catheters implanted into the femoral artery and vein under chloral hydrate anesthesia (400 mg/kg, i.p.). After 2 to 4 days of recovery, on the experimental day, a urinary bladder catheter was implanted under methohexital anesthesia (50 mg/kg, i.p.). Rats were placed in a restraint device to allow for urine collection and mean arterial pressure measurements. After 1-2 hours of recovery, in conscious rats, an isotonic saline infusion (50 μl/min) was started and continued for the duration of the experiment. After one hour equilibration to the saline infusion, a 20 minute control urine and mean arterial pressure collection were obtained. Then angiotensin II was infused at 20 ng/min for 25 minutes. After 5 minutes of angiotensin II infusion, a 20 minute experimental collection was made. Finally, 5 minutes after the end of angiotensin II infusion, a 20 minute recovery collection was obtained. In separate groups of rats, vehicle (0.3 ml isotonic saline, i.v. bolus), Example #5 angiotensin II antagonist compound (100 mg/kg, i.v. bolus), or Example #81 conjugate (100 mg/kg, i.v. bolus) was administered 1-2 minutes prior to onset of angiotensin II infusion. […] Results are shown in Tables XIII and XIV and also in FIGS. 3 and 4. Data are presented as means±SE. Repeated measures analysis of variance was used for main effects and interactions and Tukey's HSD test was used for pairwise comparisons among means. Statistical significance was defined as p<0.05."}},
  "data": [
    {"smiles": "CCCCc1nc(Cl)c(CO)n1Cc1ccc(-c2ccccc2C(=O)O)cc1", "note": "[Example 5]", "values": [
      {"measurement": "% Control of AII Pressor Response", "setting": "[1]; 1 mg/kg i.v., 1 min", "value": 80, "unit": "%"},
      {"measurement": "% Control of AII Pressor Response", "setting": "[1]; 1 mg/kg i.v., 5 min", "value": 85, "unit": "%"},
      {"measurement": "% Control of AII Pressor Response", "setting": "[1]; 1 mg/kg i.v., 10 min", "value": 92, "unit": "%"},
      {"measurement": "% Control of AII Pressor Response", "setting": "[1]; 1 mg/kg i.v., 20 min", "value": 90, "unit": "%"},
      {"measurement": "% Control of AII Pressor Response", "setting": "[1]; 1 mg/kg i.v., 30 min", "value": 88, "unit": "%"},
      {"measurement": "% Control of AII Pressor Response", "setting": "[1]; 1 mg/kg i.v., 40 min", "value": 86, "unit": "%"},
      {"measurement": "% Control of AII Pressor Response", "setting": "[1]; 1 mg/kg i.v., 50 min", "value": 86, "unit": "%"},
      {"measurement": "% Control of AII Pressor Response", "setting": "[1]; 1 mg/kg i.v., 60 min", "value": 89, "unit": "%"},
      {"measurement": "% Control of AII Pressor Response", "setting": "[1]; 1 mg/kg i.v., 75 min", "value": 93, "unit": "%"},
      {"measurement": "% Control of AII Pressor Response", "setting": "[1]; 1 mg/kg i.v., 90 min", "value": 95, "unit": "%"},
      {"measurement": "% Control of AII Pressor Response", "setting": "[1]; 1 mg/kg i.v., 120 min", "value": 100, "unit": "%"},
      {"measurement": "% Control of AII Pressor Response", "setting": "[1]; 3 mg/kg i.v., 1 min", "value": 39, "unit": "%"},
      {"measurement": "% Control of AII Pressor Response", "setting": "[1]; 3 mg/kg i.v., 5 min", "value": 55, "unit": "%"},
      {"measurement": "% Control of AII Pressor Response", "setting": "[1]; 3 mg/kg i.v., 10 min", "value": 63, "unit": "%"},
      {"measurement": "% Control of AII Pressor Response", "setting": "[1]; 3 mg/kg i.v., 20 min", "value": 68, "unit": "%"},
      {"measurement": "% Control of AII Pressor Response", "setting": "[1]; 3 mg/kg i.v., 30 min", "value": 74, "unit": "%"},
      {"measurement": "% Control of AII Pressor Response", "setting": "[1]; 3 mg/kg i.v., 40 min", "value": 75, "unit": "%"},
      {"measurement": "% Control of AII Pressor Response", "setting": "[1]; 3 mg/kg i.v., 50 min", "value": 75, "unit": "%"},
      {"measurement": "% Control of AII Pressor Response", "setting": "[1]; 3 mg/kg i.v., 60 min", "value": 81, "unit": "%"},
      {"measurement": "% Control of AII Pressor Response", "setting": "[1]; 3 mg/kg i.v., 75 min", "value": 88, "unit": "%"},
      {"measurement": "% Control of AII Pressor Response", "setting": "[1]; 3 mg/kg i.v., 90 min", "value": 92, "unit": "%"},
      {"measurement": "% Control of AII Pressor Response", "setting": "[1]; 3 mg/kg i.v., 120 min", "value": 98, "unit": "%"},
      {"measurement": "% Control of AII Pressor Response", "setting": "[1]; 10 mg/kg i.v., 1 min", "value": 4, "unit": "%"},
      {"measurement": "% Control of AII Pressor Response", "setting": "[1]; 10 mg/kg i.v., 5 min", "value": 16, "unit": "%"},
      {"measurement": "% Control of AII Pressor Response", "setting": "[1]; 10 mg/kg i.v., 10 min", "value": 23, "unit": "%"},
      {"measurement": "% Control of AII Pressor Response", "setting": "[1]; 10 mg/kg i.v., 20 min", "value": 31, "unit": "%"},
      {"measurement": "% Control of AII Pressor Response", "setting": "[1]; 10 mg/kg i.v., 30 min", "value": 40, "unit": "%"},
      {"measurement": "% Control of AII Pressor Response", "setting": "[1]; 10 mg/kg i.v., 40 min", "value": 47, "unit": "%"},
      {"measurement": "% Control of AII Pressor Response", "setting": "[1]; 10 mg/kg i.v., 50 min", "value": 51, "unit": "%"},
      {"measurement": "% Control of AII Pressor Response", "setting": "[1]; 10 mg/kg i.v., 60 min", "value": 60, "unit": "%"},
      {"measurement": "% Control of AII Pressor Response", "setting": "[1]; 10 mg/kg i.v., 75 min", "value": 71, "unit": "%"},
      {"measurement": "% Control of AII Pressor Response", "setting": "[1]; 10 mg/kg i.v., 90 min", "value": 80, "unit": "%"},
      {"measurement": "% Control of AII Pressor Response", "setting": "[1]; 10 mg/kg i.v., 120 min", "value": 96, "unit": "%"},
      {"measurement": "Urinary Sodium Excretion", "setting": "[2]; 100 mg/kg i.v. bolus, Recovery after AII infusion", "value": "2.6 ± 0.7", "unit": "μEq/min/100 g BW"},
      {"measurement": "Urinary Sodium Excretion", "setting": "[2]; 100 mg/kg i.v. bolus, during AII infusion 20 ng/min, * in table", "value": "2.5 ± 1.1", "unit": "μEq/min/100 g BW"},
      {"measurement": "antinatriuretic (urinary sodium excretion) response to angiotensin II", "setting": "[2]; 100 mg/kg, i.v. bolus, AII 20 ng/min", "value": "prevented both responses to angiotensin II"},
      {"measurement": "Urinary Sodium Excretion", "setting": "[2]; Control period (before dosing)", "value": "2.4 ± 0.5", "unit": "μEq/min/100 g BW"}
    ]}
  ]
}
